≈ marks a conversion by molar mass, not a printed value.
Columns and labels:
S. aureus strain AG461 [1] = conditions: strain AG461 (methicillin-resistant clinical isolate)
Excerpt: The different concentrations of lysostaphin and vancomycin used were one and eight times their respective MIC.

S. aureus strain AG461 [2] = test: Time-kill experiment, S. aureus AG461 (FIG. 1); assay type: cell-based; conditions: 2 and 16 μg/ml (1x and 8x MIC), three hours of contact
Method: The bactericidal activity of lysostaphin against S. aureus was also studied by means of time-kill experiments. In one experiment of this type, S. aureus strain AG461, a methicillin-resistant clinical isolate from Genoa, Italy, was inoculated into Mueller-Hinton broth (Difco) and grown at 37° C. with gentle shaking until it reached approximately 10^8 viable cells per ml (CFU/ml), as estimated from the absorbance of the culture at 600 nm. The culture was then diluted with fresh broth to approximately 10^6 CFU/ml and 5 ml aliquots were placed in several different flasks for exposure to different concentrations of antibacterial agents. Incubation was continued, with gentle shaking, at 37° C., and samples were withdrawn at intervals for determination of viable cells. Serial 10-fold dilutions of the samples were made in sterile saline (0.9% NaCl in distilled water) and duplicate 0.1 ml aliquots of appropriate dilutions were plated on Tryptic Soy agar plates (Remel) using the agar inclusion method. (In this method, the aliquot to be plated is added to 2.5 ml of top agar, which is mixed and poured onto a plate. Top agar consisted of molten Tryptic Soy agar (Difco) diluted 2-fold with Difco Tryptic Soy broth to give a final agar concentration of 0.75%, w/v.) The plates were incubated for 24-48 hours at 36° C. and the colonies were counted manually. […]

S. aureus Smith = test: Acute S. aureus infection model in mice (survival); assay type: in vivo
Method: The efficacy of lysostaphin was compared to that of vancomycin in an acute infection model in mice. S. aureus Smith was cultured overnight, with moderate agitation, in Veal Infusion broth (Difco) and diluted in broth containing 5% hog gastric mucin (Difco). Male Swiss-Webster mice (Taconic Farms, Germantown, N.Y.) weighing approximately 20 grams were infected intraperitoneally with 10^5-10^6 viable cells, approximately tenfold the inoculum that reproducibly killed all untreated animals within 48 h. There were six mice in each treatment group. Lysostaphin was administered intravenously (in 0.1 ml 5% dextrose for injection) or subcutaneously (in 0.2 ml), within 10 min of infection. Vancomycin was administered subcutaneously.

[3] = test system: methicillin-resistant VISA strain of S. aureus; test: Vancomycin MIC for the laboratory-selected VISA strain; assay type: cell-based; conditions: Staphylococcus aureus, variant strain selected after cycles of growth in glycopeptide-containing medium
Method: Strains that are both methicillin-resistant and resistant to vancomycin are a newly emerging problem. A variant strain of this type was selected after cycles of growth in glycopeptide-containing medium. The vancomycin MIC for the resulting strain was 8 μg/ml, as reported also for naturally occurring VISA strains isolated from patients in the U.S. and Japan. (Centers for Disease Control and Prevention, Morbidity and Mortality Weekly Report 1997; 46:813-815). Staphylococcal isolates are considered to be susceptible to vancomycin if the MIC is less than or equal to 4 μg/ml and to be completely resistant if the MIC is greater than or equal to 32 μg/ml (National Committee for Clinical Laboratory Standards, 1993. Approved Standard M2-A5. Performance standards for antimicrobial disk susceptibility tests—Fifth edition. National Committee for Clinical Laboratory Standards, Villanova, Pa.)

S. aureus = test: MIC by broth macrodilution in glass tubes; assay type: cell-based
Method: In this experiment, MICs were determined by broth macrodilution in 1 ml final volumes in glass tubes. Otherwise, the methodology was as described above.

`CN[C@H](CC(C)C)C(=O)N[C@H]1C(=O)N[C@@H](CC(N)=O)C(=O)N[C@H]2C(=O)N[C@H]3C(=O)N[C@H](C(=O)N[C@H](C(=O)O)c4cc(O)cc(O)c4-c4cc3ccc4O)[C@H](O)c3ccc(c(Cl)c3)Oc3cc2cc(c3O[C@@H]2O[C@H](CO)[C@@H](O)[C@H](O)[C@H]2O[C@H]2C[C@](C)(N)[C@H](O)[C@H](C)O2)Oc2ccc(cc2Cl)[C@H]1O` [vancomycin, reference compound] was tested, and the “MIC (lower time-kill concentration stated to be one times MIC)” value (S. aureus strain AG461 [1]) was 2 µg/mL (≈ 1.38 µM), the “bactericidal action (killing of the bacteria)” value (S. aureus strain AG461 [2]) was “very little killing” and the “% survival” value (S. aureus Smith; 5 mg/kg sc) was 100%. The MIC [3] was 8 µg/mL (≈ 5.52 µM).

In the case of “Gly218Asp: lysostaphin variant with a single change, glycine to aspartic acid, at position 218 of the mature protein”, the MIC (S. aureus; strain AG402 (clinical isolate)) is reported as “.06 µg/mL”, the MIC (S. aureus; strain AG404 (clinical isolate, methicillin-resistant)) is reported as “.06 µg/mL” and the MIC (S. aureus; strain AG414) is reported as “.03 µg/mL”. For the same compound, the MIC (S. aureus; strain AG417) was “.03 µg/mL”, the “% survival” value (S. aureus Smith; Table 4 experiment, dose 0.08 mg/kg) was 0% and the “% survival” value (S. aureus Smith; Table 4 experiment, dose 0.16 mg/kg) was 17%. The “% survival” value (S. aureus Smith; Table 4 experiment, dose 0.31 mg/kg) was 33% and the “% survival” value (S. aureus Smith; Table 4 experiment, dose 0.63 mg/kg) was 83%.
